Where two headings read alike, the source gives them in different places. *1 amine or outer side, *2 acyl side, *3 side chain or, on linkers, in order; H or OH if unused. Where a SMILES comes first, the peptide text is derived from it. [ ]: non-standard residue; d: D form. The star is where a group is joined. GluureaLys(ε-3-ClBenzyl) = O=C(O)CC[C@H](NC(=O)N[C@@H](CCCCN(Cc1cccc(Cl)c1)*)C(=O)O)C(=O)O; X4 = C[C@]12CC[C@H](OC(=O)CCC(=O)*)CC1=CC[C@@H]1[C@@H]2CC[C@]2(C)C(c3cccnc3)=CC[C@@H]12; Dolaproine = CO[C@@H]([C@@H]1CCCN1)[C@@H](C)C(=O)O; Dil = CC[C@H](C)[C@H](NC)[C@@H](CC(=O)O)OC; X2 = O=C(CCCc1cn(CCCN[*:1])nn1)[*:2]; PABC = O=C(OCc1ccc(N[*:1])cc1)[*:2]; X1 = C[C@@H](N*)[C@@H](O)c1ccccc1; Cit = NC(=O)NCCC[C@H](N)C(=O)O; Suc = O=C(CCC(=O)[*:2])[*:1]; NMeV = CN[C@H](C(=O)O)C(C)C; Ahx = NCCCCCC(=O)O
What was measured:
[1] = test system: PC-3 prostate adenocarcinoma xenograft; conditions: PC-3 xenograft; for tumor volume V±m: i.v. triple injection, single dose 132.3 nM/kg; for Tumor growth inhibition: i.v. 132.3 nM/kg three times; for TGI, did not exceed: i.v. 132.3 nM/kg three times at five-day intervals, male Balb/c nude mice
Protocol: (§1) We carried out in vivo studies of the efficacy of the obtained bimodal conjugates. […] Also, conjugate I (Figure 5) was used as a reference compound. An isotonic (0.9%) sodium chloride solution was used as a negative control. Studies were carried out in xenograft models of 22Rv1 human prostate carcinoma and PC-3 prostate adenocarcinoma in immunodeficient Balb/c nude mice (male).
(§2) Two cell lines were used: human prostate carcinoma 22Rv1 and prostate adenocarcinoma PC-3 (ATCC collection). Cells were cultured in 75 cm^2 vials (Costar, Washington, DC, USA) in RPMI-1640 medium (PanEco, Russia) with the addition of 2 mM L-glutamine (PanEco, Russia) and 10% fetal calf serum (HyClone, Logan, UT, USA) under standard conditions of cultivation (in a humidified atmosphere at 37 °C and 5% CO2). Cells of 6–10 passages were used to inoculate the animals. Cell suspension was prepared with a concentration of 5 × 10^6 cells in 0.05 mL of the 22Rv1 medium and in 0.1 mL of the PC-3 medium. 22Rv1 cells were inoculated into animals in Matrigel (BD Matrigel Basement Membrane Matrix, BD Biosciences, San Jose, CA, USA). Manipulations with Matrigel were performed on a refrigerated plate using precooled materials, tubes and instrumentation. For animal administration, 50 μL of the cell suspension (5 × 10^6 cells) was transferred to a chilled tube containing 50 μL of Matrigel; after mixing, the cellular material (final volume of 100 μL) was injected subcutaneously into the groin area of the animal. To obtain subcutaneous xenograft PC-3, a 5 × 10^6 suspension of tumor cells was inoculated subcutaneously into the inguinal cavity of male mice in a volume of 0.1 mL.
(§3) To study the antitumor efficacy, conjugates were administered intravenously at a dose of 132.3 nM/kg to tumor-bearing mice three times at five-day intervals; administration was started 7−8 days after cell inoculation, and the tumor size was 70−90 mm^3. As a control substance, 0.9% sodium chloride solution was used. Experimental groups included five animals each. […] The mixture was dissolved in DMSO (5% of final solution) and diluted with hemodesum (30% low-molecular-weight polyvinylpyrrolidone (Mw = 8000 ± 200) saline infusion solution). The presence of tumors and their sizes, as well as the body weights of the mice, were recorded every five days during the observation of the animals. The antitumor effect was assessed by comparing the tumor volumes in the experimental and control groups as well as the amount of tumor growth inhibition (TGI, %).
(§4) Tumor volume was calculated using Formula (1):V = d1 × d2 × d3 × 0.52(1) where d1, d2 and d3 are the three mutually perpendicular dimensions of the tumor. […]
(§5) 3.2.1. In vivo evaluation of antitumor efficacy […]
(§6) intravenously at a dose of 132.3 nM/kg to tumor-bearing mice three times at 5-day intervals, the administration was started 7-8 days after cell inoculation to animals, tumor size was 70-90 mm3.
(§7) A 0.9% sodium chloride solution was used as a control substance. The experimental groups […]
(§8) The presence of tumor masses and their size, as well as the body weight of the mice, were recorded every 5 days during observation. In accordance with humane principles, animals were euthanized by placing the mice in a CO2 inhalation chamber (ZOONLAB GmbH, Germany).

[2] = test system: 22Rv1 human prostate carcinoma xenograft; conditions: 22Rv1 xenograft; for tumor volume V±m: i.v. triple injection, single dose 132.3 nM/kg; for Tumor growth inhibition: i.v. 132.3 nM/kg three times
Protocol: as §1, §2, §3, §4, §5, §6, §7, §8

[3] = Body weight, general condition and mortality in the antitumor efficacy study; conditions: i.v. 132.3 nM/kg x3
Protocol: Animal body weight data are presented in Table S2 in the electronic supplementary materials.
as §3, with “%). […]” for “%).”
as §5, §6, §7, §8
Conjugate Method of injection Dose Number of animals 22Rv1 PC-3 […]
3.4. In vivo Efficacy Evaluation
Days after tumor implantation / mass± error, g
Conjugate 7 day 12 day 17 day […]
injection) injection) injection)
Human prostate carcinoma 22Rv1
Human prostate adenocarcinoma PC-3
Table S3. Tumor growth dynamics of 22Rv1 and PC-3 in mice with intravenous triple injection of […]
ate Days after tumor implantation / V±m, mm3

[4] = 7 day after tumor implantation (1st injection)
[5] = 12 day after tumor implantation (2nd injection)
[6] = 22 day after tumor implantation
[7] = 33 day after tumor implantation
[8] = 37 day after tumor implantation
[9] = days after the start of treatment: 1
[10] = days after the start of treatment: 5
[11] = days after the start of treatment: 10
[12] = days after the start of treatment: 16
[13] = days after the start of treatment: 20
[14] = 17 day after tumor implantation (3rd injection)
[15] = 22Rv1 xenograft mice, 7 day after tumor implantation (1st injection)
[16] = 22Rv1 xenograft mice, 12 day after tumor implantation (2nd injection)
[17] = 22Rv1 xenograft mice, 17 day after tumor implantation (3rd injection)
[18] = 22Rv1 xenograft mice, 22 day after tumor implantation
[19] = 22Rv1 xenograft mice, 27 day after tumor implantation
[20] = 22Rv1 xenograft mice, 33 day after tumor implantation
[21] = 22Rv1 xenograft mice, 37 day after tumor implantation
[22] = PC-3 xenograft mice, 7 day after tumor implantation (1st injection)
[23] = PC-3 xenograft mice, 12 day after tumor implantation (2nd injection)
[24] = PC-3 xenograft mice, 17 day after tumor implantation (3rd injection)
[25] = PC-3 xenograft mice, 22 day after tumor implantation
[26] = PC-3 xenograft mice, 27 day after tumor implantation
[27] = PC-3 xenograft mice, 33 day after tumor implantation
[28] = PC-3 xenograft mice, 37 day after tumor implantation

Compound	tumor volume V±m [1, 4]	tumor volume V±m [1, 5]	tumor volume V±m [1, 7]	tumor volume V±m [1, 8]	Tumor growth inhibition [1, 12]	Tumor growth inhibition [1, 13]	TGI, did not exceed [1]	tumor volume V±m [2, 4]	tumor volume V±m [2, 5]	tumor volume V±m [2, 14]	tumor volume V±m [2, 6]	tumor volume V±m [2, 7]	tumor volume V±m [2, 8]	Tumor growth inhibition [2, 9]	Tumor growth inhibition [2, 12]	Tumor growth inhibition [2, 13]	body weight, mass ± error [3, 15]	body weight, mass ± error [3, 16]	body weight, mass ± error [3, 17]	body weight, mass ± error [3, 18]	further results
CC[C@H](C)[C@@H]([C@@H](CC(=O)N1CCC[C@H]1[C@H](OC)[C@@H](C)C(=O)N[C@H](C)[C@@H](O)c1ccccc1)OC)N(C)C(=O)[C@@H](NC(=O)[C@H](C(C)C)N(C)C(=O)OCc1ccc(NC(=O)[C@H](CCCNC(N)=O)NC(=O)[C@@H](NC(=O)CCCc2cn(CCCNC(=O)[C@H](CCCCNC(=O)CCC(=O)O[C@H]3CC[C@@]4(C)C(=CC[C@@H]5[C@@H]4CC[C@]4(C)C(c6cccnc6)=CC[C@@H]54)C3)NC(=O)[C@H](Cc3ccc(O)cc3)NC(=O)[C@H](Cc3ccccc3)NC(=O)CCC(=O)NCCCCCC(=O)N(CCCC[C@H](NC(=O)N[C@@H](CCC(=O)O)C(=O)O)C(=O)O)Cc3cccc(Cl)c3)nn2)C(C)C)cc1)C(C)C [13a] ({GluureaLys(ε-3-ClBenzyl)-Ahx-Suc}-FYK(X4)[X2]V[Cit][PABC][NMeV]V[Dil][Dolaproine]-X1)	82.2±5.9 mm3	127.5 mm3	958.0 mm3	1684.0 mm3	29.5%	38.3%	≤ 44.9%	69.6±17.0 mm3	77.2±9.3 mm3	81.4±25.8 mm3	121.7 mm3	391.6 mm3	784.0 mm3	62.0%	80.6%	72.6%	22.3 ± 1.3 g	22.5 ± 1.4 g	22.2 ± 1.4 g	22.2 ± 1.4 g	tumor volume V±m [1, 6]: 292.5 mm3; tumor volume V±m ([1]; 27 day after tumor implantation): 463.1 mm3; Tumor growth inhibition [1, 9]: 36.2%; Tumor growth inhibition [1, 10]: 40.0%; Tumor growth inhibition [1, 11]: 44.9%; Tumor growth inhibition [2, 10]: 77.1%; Tumor growth inhibition [2, 11]: 80.4%; body weight, mass ± error [3, 19]: 22.5 ± 1.3 g; body weight, mass ± error [3, 20]: 22.7 ± 1.3 g; body weight, mass ± error [3, 21]: 22.7 ± 1.3 g; body weight, mass ± error [3, 22]: 24.9 ± 1.2 g; body weight, mass ± error [3, 23]: 24.7 ± 1.5 g; body weight, mass ± error [3, 24]: 24.8 ± 1.4 g; body weight, mass ± error [3, 25]: 25.0 ± 1.4 g; body weight, mass ± error [3, 26]: 25.1 ± 1.3 g; body weight, mass ± error [3, 27]: 25.2 ± 1.2 g; body weight, mass ± error [3, 28]: 25.3 ± 1.2 g
CC[C@H](C)[C@@H]([C@@H](CC(=O)N1CCC[C@H]1[C@H](OC)[C@@H](C)C(=O)N[C@H](C)[C@@H](O)c1ccccc1)OC)N(C)C(=O)[C@@H](NC(=O)[C@H](C(C)C)N(C)C(=O)OCc1ccc(NC(=O)[C@H](CCCNC(N)=O)NC(=O)[C@@H](NC(=O)CCCc2cn(CCCNC(=O)[C@H](Cc3ccc(O)cc3)NC(=O)[C@H](Cc3ccccc3)NC(=O)CCC(=O)NCCCCCC(=O)N(CCCC[C@H](NC(=O)N[C@@H](CCC(=O)O)C(=O)O)C(=O)O)Cc3cccc(Cl)c3)nn2)C(C)C)cc1)C(C)C [I, reference compound] ({GluureaLys(ε-3-ClBenzyl)-Ahx-Suc}-FY[X2]V[Cit][PABC][NMeV]V[Dil][Dolaproine]-X1)	80.3±4.5 mm3	92.6±14.8 mm3	1059.1 mm3	1855.5 mm3	37.2%	21.1%	≤ 37.7%	78.3±16.3 mm3	85.4±25.5 mm3	92.6±34.8 mm3	147.7 mm3	419.5 mm3	824.4 mm3	77.4%	80.1%	71.0%	23.4 ± 0.8 g	23.9 ± 1.2 g	23.5 ± 1.7 g	23.4 ± 1.5 g	tumor volume V±m [1, 14]: 128.9 mm3; body weight, mass ± error [3, 19]: 23.2 ± 1.4 g; body weight, mass ± error [3, 20]: 23.2 ± 1.6 g; body weight, mass ± error [3, 21]: 23.4 ± 1.5 g; body weight, mass ± error [3, 22]: 22.4 ± 2.1 g; body weight, mass ± error [3, 23]: 22.8 ± 1.8 g; body weight, mass ± error [3, 24]: 22.4 ± 1.6 g; body weight, mass ± error [3, 25]: 22.8 ± 1.4 g; body weight, mass ± error [3, 26]: 23.0 ± 1.3 g; body weight, mass ± error [3, 27]: 23.2 ± 1.4 g; body weight, mass ± error [3, 28]: 23.1 ± 1.3 g

Reference: article PMC10380083, “Synthesis of Prostate-Specific Membrane Antigen-Targeted Bimodal Conjugates of Cytotoxic Agents and Antiandrogens and Their Comparative Assessment with Monoconjugates” (International Journal of Molecular Sciences, 2023)
